One molecule from patent US8940736B2, “Imidazotriazinecarbonitriles useful as kinase inhibitors” (Bristol-Myers Squibb Company, priority 2012, dated 2015) can be followed below.

One test has as its target recombinant CK2A1 (Homo sapiens (Human), UniProt P68400). In words: CK2 kinase assay (CK2A1). The settings on record: Table B, comparison compound of WO 2007/038314 / US 2008/0045536. The format is biochemical.
In the next test the target is recombinant CK2A2 (Homo sapiens (Human), UniProt P19784). Description: CK2 kinase assay (CK2A2). The class given is biochemical. Particulars: Table B, comparison compound of WO 2007/038314 / US 2008/0045536.

One may read the IC50 as the concentration needed to halve the response being measured.

recombinant CK2A1, sequence (P68400 whole entry): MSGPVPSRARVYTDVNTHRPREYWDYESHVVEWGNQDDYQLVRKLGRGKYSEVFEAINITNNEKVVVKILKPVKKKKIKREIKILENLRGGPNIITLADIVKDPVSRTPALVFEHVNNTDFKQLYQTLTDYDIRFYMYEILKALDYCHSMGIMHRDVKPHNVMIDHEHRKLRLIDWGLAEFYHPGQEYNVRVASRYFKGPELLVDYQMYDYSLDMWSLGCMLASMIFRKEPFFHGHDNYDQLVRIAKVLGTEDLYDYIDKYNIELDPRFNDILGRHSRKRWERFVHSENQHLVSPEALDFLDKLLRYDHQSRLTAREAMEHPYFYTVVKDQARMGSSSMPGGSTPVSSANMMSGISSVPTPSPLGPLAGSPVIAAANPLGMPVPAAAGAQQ
recombinant CK2A2, sequence (P19784 whole entry): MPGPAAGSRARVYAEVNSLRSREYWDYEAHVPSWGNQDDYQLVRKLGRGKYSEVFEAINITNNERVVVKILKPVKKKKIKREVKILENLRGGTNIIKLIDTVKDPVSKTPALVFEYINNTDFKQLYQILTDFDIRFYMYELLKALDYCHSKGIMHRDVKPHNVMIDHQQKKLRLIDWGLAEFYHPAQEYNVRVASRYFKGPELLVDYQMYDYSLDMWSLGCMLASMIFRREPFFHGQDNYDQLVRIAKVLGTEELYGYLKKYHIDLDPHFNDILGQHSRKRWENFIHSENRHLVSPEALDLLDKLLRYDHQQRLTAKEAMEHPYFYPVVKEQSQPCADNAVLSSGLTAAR
Experimental for recombinant CK2A1: (§1) For example, in vitro protein kinase assays may be conducted with a relevant purified protein kinase and an appropriate synthetic substrate to determine the inhibitory activity of the compounds. […] Reaction mixtures were incubated at 30° C. for 1 hour, and reaction products were captured by binding to phosphocellulose (P81) filter plates. Incorporation of radioactive phosphate into the peptide substrate was determined by liquid scintillation counting.
(§2) The inhibitory activity of the instant compounds may also be measured by recombinant CK2 holoenzyme kinase assays. The assays were performed in U-bottom 384-well plates. […] The reaction was initiated by the combination of bacterially expressed, CK2α/β or CK2α′/β holoenzyme with substrates and test compounds. […] Compounds were dissolved at 10 mM in dimethylsulfoxide (DMSO) and evaluated at eleven concentrations. IC50 values were derived by non-linear regression analysis.
Experimental for recombinant CK2A2: as §1, §2

On to `CCOc1ccc(Nc2nc(N[C@H]3CC[C@@H](N)CC3)nn3ccnc23)cc1` [XIII], for which the IC50 was 1800 nM at recombinant CK2A1 and 331 nM on recombinant CK2A2.
